Data as given in patent publication US20230391741A1, “AGAROFURAN COMPOUND, PREPARATION METHOD THEREFOR, AND APPLICATION THEREOF” (BEIJING CHY PHARMACEUTICAL TECHNOLOGY CO, LTD., priority 2021, published 2023).
Values joined by “and” are separate entries in the source; they are usually repeats but may differ in a detail not shown here. Identical values can stand only once. Like-named read-outs stand apart in the source and are kept apart here. One block for each compound: values may come before it.

Assay: Plasma pharmacokinetics after intraperitoneal injection in mouse (UPLC-MS/MS)
Format: in vivo
Details: for concentration at 5 min / concentration at 0.167 h / concentration at 0.25 h / concentration at 0.5 h / concentration at 1 h / concentration at 2 h / concentration at 4 h / concentration at 8 h / half-life / MRT / AUC(0-inf) / Cmax / Tmax / AUC(0-t) / MRT inf / concentration at 6 h: male, ICR; for concentration at 5 min / concentration at 0.167 h / concentration at 0.25 h / concentration at 0.5 h / concentration at 1 h / concentration at 2 h / concentration at 4 h / concentration at 8 h / half-life / MRT / concentration at 6 h: plasma; for concentration at 5 min / concentration at 0.167 h / concentration at 0.25 h / concentration at 0.5 h / concentration at 1 h / concentration at 2 h / concentration at 4 h / concentration at 8 h / concentration at 6 h: ip; for MRT: read-out: mean residence time (MRT)(0-t); for AUC(0-inf) / Cmax / Tmax / AUC(0-t) / MRT inf / AUClast/D / AUC—% Extrap—obs / T1/2: mouse plasma, prototype drug; for AUC(0-t): read-out: AUClast; for MRT inf: read-out: MRTInf—obs
Protocol: Positive control drug 4-butyl-α-agarofuran preparation (BAF) and Compound 2 preparation were administered intraperitoneally at a dose of 10 mg/kg/10 ml (calculated according to the crude drug), and a suspension was prepared by ultrasonic grinding with double distilled water. Male ICR mice, with a weight of 21-24 g, were purchased from SPF (Beijing) Biotechnology Co., Ltd.
12 mice were randomly divided into 4 groups, there were 3 parallel cross blood sampling points in each group (5 points in groups 1 and 3, and 6 points in groups 2 and 4), it was administered according to the weight, and blood was collected from the orbital venous plexus at 5 min, 10 min, […], 30 min, 1 h, 2 h, 4 h, 6 h, 8 h, 12 h, and 24 h after administration. The bloods at each time point were collected into Eppendorf (EP) tubes anticoagulated with heparin, and placed on ice and centrifuged at 8000 r/min×5 min, to separate plasma for later use.
20 μl of mouse blank plasma was taken, 55 μl of acetonitrile containing an internal standard solution (200 ng/mL, BAF crude drug and Compound 2 crude drug are mutual internal standards, namely BAF was used as the internal standard of Compound 2, and Compound 2 was used as the internal standard of BAF, similarly hereinafter) is added, 5 μl of a methanol working solution of the compound BAF or Compound 2 with different concentrations was respectively added and mixed uniformly, so that its final plasma concentrations were 0.2, 0.5, 2, 5, 10, 25, 50, 100, 200, 500, 750, and 1000 ng/ml respectively, centrifugation was conducted twice at a high speed of 13000 r/min×5 min, and 5 μl of a supernatant was taken for UPLC-MS/MS analysis.
10 μL of plasma was taken, 30 μL of acetonitrile containing internal standard solution (100 ng/mL) was added to precipitate proteins, after the material was centrifuged twice at a high speed of 13000 r/min×5 min, 5 μl of a supernatant was taken for UPLC-MS/MS analysis.
Chromatographic column: Symmetry C8 (2.1 mm×50 mm, 3.5 μm), column temperature: 25° C., mobile phase: acetonitrile (0.1% formic acid): water (0.1% formic acid)=70:30 gradient elution, flow rate: 0.2 mL/min, Parallel Reaction Monitoring (PRM) detection, BAF: m/z 263.2→245.2; and Compound 2: m/z 317.2→299.2.

[1] = mouse, 10 mg/kg, IP 10 mg/kg, 5 min, read-out: Plasma concentration, Mean
[2] = mouse, 10 mg/kg, IP 10 mg/kg, 0.167 h, read-out: Plasma concentration, Mean
[3] = mouse, 10 mg/kg, IP 10 mg/kg, 0.167 h, read-out: Plasma concentration, individual mice 1-3
[4] = mouse, 10 mg/kg, IP 10 mg/kg, 0.25 h, read-out: Plasma concentration, Mean
[5] = mouse, 10 mg/kg, IP 10 mg/kg, 0.5 h, read-out: Plasma concentration, Mean
[6] = mouse, 10 mg/kg, IP 10 mg/kg, 0.5 h, read-out: Plasma concentration, individual mice 1-3
[7] = mouse, 10 mg/kg, IP 10 mg/kg, 1 h, read-out: Plasma concentration, Mean
[8] = mouse, 10 mg/kg, IP 10 mg/kg, 2 h, read-out: Plasma concentration, Mean
[9] = mouse, 10 mg/kg, IP 10 mg/kg, 2 h, read-out: Plasma concentration, individual mice 1-3
[10] = mouse, 10 mg/kg, IP 10 mg/kg, 4 h, read-out: Plasma concentration, Mean
[11] = mouse, 10 mg/kg, IP 10 mg/kg, 8 h, read-out: Plasma concentration, individual mice 1-3

Plasma concentration, individual mice 1-3 (IP 10 mg/kg, 5 min, 10 mg/kg): 413 ng/mL and 295 ng/mL and 194 ng/mL
Plasma concentration, individual mice 1-3 (IP 10 mg/kg, 0.167 h, 10 mg/kg): 133 ng/mL and 204 ng/mL
Plasma concentration, individual mice 1-3 (IP 10 mg/kg, 0.25 h, 10 mg/kg): 364 ng/mL and 132 ng/mL and 91.8 ng/mL
Plasma concentration, individual mice 1-3 (IP 10 mg/kg, 0.5 h, 10 mg/kg): 45.2 ng/mL and 38.9 ng/mL
Plasma concentration, individual mice 1-3 (IP 10 mg/kg, 1 h, 10 mg/kg): 54.6 ng/mL and 22.2 ng/mL and 24.4 ng/mL
Plasma concentration, individual mice 1-3 (IP 10 mg/kg, 2 h, 10 mg/kg): 6.91 ng/mL and 6.54 ng/mL
Plasma concentration, individual mice 1-3 (IP 10 mg/kg, 4 h, 10 mg/kg): 11.3 ng/mL and 2.09 ng/mL and 2.90 ng/mL
Plasma concentration, individual mice 1-3 (IP 10 mg/kg, 6 h): BLOQ
Plasma concentration, individual mice 1-3 (IP 10 mg/kg, 8 h, 10 mg/kg): BLOQ
Plasma concentration, individual mice 1-3 (IP 10 mg/kg, 12 h): BLOQ
Plasma concentration, individual mice 1-3 (IP 10 mg/kg, 24 h): BLOQ
concentration at 5 min [1]: 301 ng/mL
concentration at 0.167 h [2]: 179 ng/mL
concentration at 0.167 h [3]: 201 ng/mL
concentration at 0.25 h [4]: 196 ng/mL
concentration at 0.5 h [5]: 42 ng/mL
concentration at 0.5 h [6]: 41.9 ng/mL
concentration at 1 h [7]: 33.7 ng/mL
concentration at 2 h [8]: 6.52 ng/mL
concentration at 2 h [9]: 6.1 ng/mL
concentration at 4 h [10]: 5.4 ng/mL
concentration at 8 h [11]: 4.03 ng/mL
half-life (mouse, IP 10 mg/kg): 1.29 h
MRT (mouse, IP 10 mg/kg): 1.05 h
AUC(0-inf) (IP 10 mg/kg): 139 ng·h/mL
Cmax (IP 10 mg/kg): 301 ng/mL
Tmax (IP 10 mg/kg): 5 min
AUC(0-t) (IP 10 mg/kg): 129 ng·h/mL
MRT inf (IP 10 mg/kg): 1.05 h
AUClast/D (IP 10 mg/kg): 12.9 kg·ng·h/mL/mg
AUC—% Extrap—obs (IP 10 mg/kg): 7.24%
T1/2 (IP 10 mg/kg): 1.29 h
Compound: CCCCC1=CCC[C@@]2(C)CC[C@@H]3C[C@]12OC3(C)C [BAF, 4-butyl-α-agarofuran, reference compound]

Plasma concentration, individual mice 1-3 (IP 10 mg/kg, 5 min, 10 mg/kg): 407 ng/mL and 585 ng/mL
Plasma concentration, individual mice 1-3 (IP 10 mg/kg, 0.167 h, 10 mg/kg): 198 ng/mL and 214 ng/mL
Plasma concentration, individual mice 1-3 (IP 10 mg/kg, 0.25 h, 10 mg/kg): 201 ng/mL and 196 ng/mL
Plasma concentration, individual mice 1-3 (IP 10 mg/kg, 0.5 h, 10 mg/kg): 59.8 ng/mL and 67.5 ng/mL
Plasma concentration, individual mice 1-3 (IP 10 mg/kg, 1 h, 10 mg/kg): 41.2 ng/mL and 32.1 ng/mL
Plasma concentration, individual mice 1-3 (IP 10 mg/kg, 2 h, 10 mg/kg): 17.9 ng/mL and 22.3 ng/mL
Plasma concentration, individual mice 1-3 (IP 10 mg/kg, 4 h, 10 mg/kg): 8.03 ng/mL and 6.56 ng/mL
Plasma concentration, individual mice 1-3 (IP 10 mg/kg, 6 h, 10 mg/kg): 3.20 ng/mL and 3.79 ng/mL
Plasma concentration, individual mice 1-3 (IP 10 mg/kg, 8 h, 10 mg/kg): BLOQ
Plasma concentration, individual mice 1-3 (IP 10 mg/kg, 12 h): BLOQ
Plasma concentration, individual mice 1-3 (IP 10 mg/kg, 24 h): BLOQ
concentration at 5 min [1]: 450 ng/mL
concentration at 5 min (mouse, 10 mg/kg, IP 10 mg/kg, 5 min, read-out: Plasma concentration, individual mice 1-3): 359 ng/mL
concentration at 0.167 h [2]: 251 ng/mL
concentration at 0.167 h [3]: 341 ng/mL
concentration at 0.25 h [4]: 195 ng/mL
concentration at 0.25 h (mouse, 10 mg/kg, IP 10 mg/kg, 0.25 h, read-out: Plasma concentration, individual mice 1-3): 188 ng/mL
concentration at 0.5 h [5]: 69.5 ng/mL
concentration at 0.5 h [6]: 81.1 ng/mL
concentration at 1 h [7]: 32.5 ng/mL
concentration at 1 h (mouse, 10 mg/kg, IP 10 mg/kg, 1 h, read-out: Plasma concentration, individual mice 1-3): 24.3 ng/mL
concentration at 2 h [8]: 20 ng/mL
concentration at 2 h [9]: 19.7 ng/mL
concentration at 4 h [10]: 7.45 ng/mL
concentration at 4 h (mouse, 10 mg/kg, IP 10 mg/kg, 4 h, read-out: Plasma concentration, individual mice 1-3): 7.77 ng/mL
concentration at 6 h (mouse, 10 mg/kg, IP 10 mg/kg, 6 h, read-out: Plasma concentration, Mean): 3.56 ng/mL
concentration at 6 h (mouse, 10 mg/kg, IP 10 mg/kg, 6 h, read-out: Plasma concentration, individual mice 1-3): 3.69 ng/mL
concentration at 8 h [11]: 3.17 ng/mL
half-life (mouse, IP 10 mg/kg): 1.61 h
MRT (mouse, IP 10 mg/kg): 1.32 h
AUC(0-inf) (IP 10 mg/kg): 198 ng·h/mL
Cmax (IP 10 mg/kg): 450 ng/mL
Tmax (IP 10 mg/kg): 5 min
AUC(0-t) (IP 10 mg/kg): 190 ng·h/mL
MRT inf (IP 10 mg/kg): 1.32 h
AUClast/D (IP 10 mg/kg): 19 kg·ng·h/mL/mg
AUC—% Extrap—obs (IP 10 mg/kg): 4.16%
T1/2 (IP 10 mg/kg): 1.61 h
Pharmacokinetic properties compared with BAF (mouse, IP): better pharmacokinetic properties
AUC(0-t) as percentage of BAF (mouse, IP 10 mg/kg): 142%
Cmax as percentage of BAF (mouse, IP 10 mg/kg): 150%
Compound: CC1(C)O[C@]23C[C@H]1CC[C@]2(C)CCC=C3CCCC(F)(F)F [Compound 2, (1R,6S,9R)6,10,10-trimethyl-2-(4,4,4-trifluorobutyl)-11-oxatricyclo [7.2.1.0^1,6]dodec-2-ene]
